A value given as a limit tells only on which side of the number the result lay.

The source of these data is patent publication US20250263395A1, “COMPOUNDS THAT MEDIATE PROTEIN DEGRADATION AND METHODS OF USE THEREOF” (Monte Rosa Therapeutics AG, priority 2022, published 2025).

In assay [1] the target is CDK2 (Homo sapiens (Human), UniProt P24941). As to the kind of experiment: CDK2 NanoBiT assay (HiBiT-tagged CDK2 degradation). It is filed as cell-based. Conditions: HEK293, HEK293 clonal line, C-terminal HiBiT tag on CDK2, LgBiT; 24 hours. As to the method:
Example 145. NanoBiT Assay
A HEK293 clonal line with a CRISPR knock-in C-terminal HiBiT tag on CDK2 and stably expressing LgBiT protein was obtained from Promega (Madison, WI). Cells were plated at 5000 cells per well using Multiflo (BioTek) in 384-well white solid bottom plates (Corning, 3570BC) in 25 ul volume in DMEM media (DMEM, high glucose, HEPES, no phenol red (ThermoFisher Scientific, 21063029)) containing 10% FBS (Corning, 35-075-CV), 1% Peniciliin/Streptomycin ((ThermoFisher Scientific, 15140-122), and 1% Endurazine (Nano-Glo Endurazine Live Cell Substrate (Promega, N2571)). Cells were incubated for 16 hours at 37 C, 5% CO2. 75 nL of a compound at 30 μM were dosed into the plate using an Echo® 650 liquid handler (Labcyte). Cells were incubated at 37° C., 5% CO2 for 24 hours and then signal was read on a Pherastar FSX using “LUM plus” optic module.
Analysis was performed in Scinamic (Scinamic, Cambridge, MA). Luminescence response (R) was calculated by the formula: response=100*(S−N)/(P−N) where S is the signal of the well, N and P the mean negative and positive control values respectively of the same plate. The luminescence response was then fitted in Scinamic using a 3-parameter agonist logistic fit (hillslope=1, EC50>0, top/bottom unconstrained).
(With HiBiT, luminescence reflects the tagged protein that the partner subunit can reach.)

Assay [2] deals with CRBN-DDB1 (Homo sapiens (Human), UniProt Q96SW2). Description: CRBN HTRF assay (Cy5-Thalidomide probe displacement). It is filed as binding. Particulars: CRBN-DDB1 2.5 nM, Cy5-Thalidomide 100 nM, 30 min; Ki from geometric mean IC50 by Cheng-Prusoff. The procedure: Compound activity was monitored in a Homogenous Time-Resolved Fluorescence (HTRF) assay using 1-[5-({2-[2-(2-{[2-(2,6-dioxopiperidin-3-yl)-1,3-dioxo-2,3-dihydro-1H-isoindol-4-yl]oxy}acetamido)ethoxy]ethyl}carbamoyl)pentyl]-3,3-dimethyl-2-[(1E,3E)-5-[(2E)-1,3,3-trimethyl-5-sulfo-2,3-dihydro-1H-indol-2-ylidene]penta-1,3-dien-1-yl]-3H-indol-1-ium-5-sulfonate as a fluorescent probe. Biochemical assays were conducted in Greiner white 384 well HiBase plates (Cat. No 784075-25) in 10 μL total volume. A one pot detection solution of CRBN-DDB1 (2.5 nM), Anti-His Terbium Cryptate Gold (1×, PerkinElmer Cat. #: 61HI2TLB), and Cy5-Thalidomide (100 nM, Tenova Cat.: T52461) was prepared in 20 mM HEPES, 20 mM NaCl, 0.2 mM TCEP, 0.2 mM EDTA, and 0.005% Tween20 was dispensed to each assay plate. Compounds were stored in dry, ambient temperatures at 10 mM. A 10-point, 1:3 dilution series was prepared from 10 mM stock concentrations in Echo-compatible LDV plates. 10 nL of each compound dilution series was dispensed into assays wells using an Echo 650 (Labcyte inc. USA). 10 nL of 10 mM Lenalidomide was transferred into the active-control wells for the assay and 10 nL of DMSO was transferred into the neutral-control wells. The assay was then allowed to incubate for 30 min at ambient temperature after transferring compound. Plate measurements were taken on a Pherastar FSX (BMG Labtech, Germany) using the HTRF Red filter (Ex. 337 nm, em1: 620 nm, em2: 665 nm) (Flashes: 50, Integration time: 60-400 us, Z-height: 10 mm, Ratio-multiplier: 10,000). The HTRF signal was then subsequently normalized to the neutral and active controls. Analysis and IC50 values were derived using KNIME analytics (KNIME Zurich) transformation and fitting within Collaborative Drug Discovery (Collaborative Drug Discovery USA). Ki was derived from the geometric mean of the IC50 values using the Cheng-Prustoff transformation.
CRBN-DDB1, sequence (Q96SW2 whole entry): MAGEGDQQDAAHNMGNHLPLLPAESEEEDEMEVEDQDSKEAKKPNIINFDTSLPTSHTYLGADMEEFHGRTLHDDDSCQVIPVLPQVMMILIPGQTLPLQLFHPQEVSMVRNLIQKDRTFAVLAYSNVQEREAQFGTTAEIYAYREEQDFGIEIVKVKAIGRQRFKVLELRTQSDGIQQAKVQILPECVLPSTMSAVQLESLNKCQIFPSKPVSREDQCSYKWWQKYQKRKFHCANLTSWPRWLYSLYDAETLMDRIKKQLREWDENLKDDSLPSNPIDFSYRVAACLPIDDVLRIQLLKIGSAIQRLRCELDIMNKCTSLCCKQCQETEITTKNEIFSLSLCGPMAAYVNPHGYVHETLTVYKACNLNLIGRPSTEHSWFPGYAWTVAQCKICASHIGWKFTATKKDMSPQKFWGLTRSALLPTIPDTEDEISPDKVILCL
CRBN-DDB1, sequence (Q16531 whole entry partner): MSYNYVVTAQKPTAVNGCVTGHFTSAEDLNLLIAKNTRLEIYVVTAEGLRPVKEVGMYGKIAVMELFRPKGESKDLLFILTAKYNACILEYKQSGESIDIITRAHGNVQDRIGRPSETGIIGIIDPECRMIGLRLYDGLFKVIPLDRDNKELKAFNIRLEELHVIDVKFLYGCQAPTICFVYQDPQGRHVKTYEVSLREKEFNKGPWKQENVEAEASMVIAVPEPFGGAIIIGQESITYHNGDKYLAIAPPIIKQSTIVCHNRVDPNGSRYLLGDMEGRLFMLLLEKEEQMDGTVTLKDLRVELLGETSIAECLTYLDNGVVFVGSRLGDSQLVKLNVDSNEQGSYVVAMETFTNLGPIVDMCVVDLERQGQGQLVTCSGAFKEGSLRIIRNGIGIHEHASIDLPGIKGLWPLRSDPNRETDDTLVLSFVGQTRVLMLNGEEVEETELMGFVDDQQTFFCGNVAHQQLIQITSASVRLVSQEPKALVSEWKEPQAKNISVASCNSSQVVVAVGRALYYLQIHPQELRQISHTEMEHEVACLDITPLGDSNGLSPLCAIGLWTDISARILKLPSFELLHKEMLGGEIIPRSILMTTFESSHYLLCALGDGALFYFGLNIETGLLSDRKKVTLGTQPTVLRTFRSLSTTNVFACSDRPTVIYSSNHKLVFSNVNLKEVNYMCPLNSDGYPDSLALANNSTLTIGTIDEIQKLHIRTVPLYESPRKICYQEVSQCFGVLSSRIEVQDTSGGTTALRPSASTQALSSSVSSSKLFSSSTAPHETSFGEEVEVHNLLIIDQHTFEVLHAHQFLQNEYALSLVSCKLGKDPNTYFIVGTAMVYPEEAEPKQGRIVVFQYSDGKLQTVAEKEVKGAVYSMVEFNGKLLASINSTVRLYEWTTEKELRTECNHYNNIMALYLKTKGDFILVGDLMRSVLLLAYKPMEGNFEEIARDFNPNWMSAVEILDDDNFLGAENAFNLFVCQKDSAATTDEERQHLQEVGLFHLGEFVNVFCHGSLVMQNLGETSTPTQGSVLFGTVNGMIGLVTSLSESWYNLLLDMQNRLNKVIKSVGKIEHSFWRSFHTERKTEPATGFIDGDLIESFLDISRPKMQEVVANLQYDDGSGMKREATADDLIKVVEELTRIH
For orientation: In TR-FRET formats the signal depends on donor and acceptor labels being close together.

Turning to `Cc1ccc(N(C)C(=O)N2CC(OC(=O)NC3CN(c4cc(F)c(C5CCC(=O)NC5=O)c(F)c4)C3)C2)c(C)c1` (stereo not shown) [Compound 116, 1-((2,4-dimethylphenyl)(methyl)carbamoyl)azetidin-3-yl (1-(4-(2,6-dioxopiperidin-3-yl)-3,5-difluorophenyl)azetidin-3-yl)carbamate], in assay [1], the Dmax (commonly the greatest extent of degradation seen) fell in the range of 10 to 50%. Besides, in assay [2], the Ki (usually a measure of affinity in units of concentration, obtained from inhibition or displacement) is not above 0.1 µM.
For the compound `O=C1CCC(c2c(F)cc(N3CC(NC(=O)OC4CN(C(=O)c5ccc(Cl)cc5)C4)C3)cc2F)C(=O)N1` (stereo not shown) [Compound 26, 1-(4-chlorobenzoyl)azetidin-3-yl (1-(4-(2,6-dioxopiperidin-3-yl)-3,5-difluorophenyl)azetidin-3-yl)carbamate], the Dmax in assay [1] was in the range of 50 to 80%. In assay [2], this compound gave a Ki not above 0.1 µM.
In the same order, the values of `Cc1ccc(N(C)C(=O)C23CC(OC(=O)NC4CN(c5cc(F)c(C6CCC(=O)NC6=O)c(F)c5)C4)(C2)C3)cc1` (stereo not shown) [Compound 133, 3-(methyl (p-tolyl)carbamoyl)bicyclo[1.1.1]pentan-1-yl (1-(4-(2,6-dioxopiperidin-3-yl)-3,5-difluorophenyl)azetidin-3-yl)carbamate] are 50 to 80% and not above 0.1 µM.
Compound `Cc1cc(Cl)ccc1N(C)C(=O)N1CC(OC(=O)NC2CN(c3cc(F)c(C4CCC(=O)NC4=O)c(F)c3)C2)C1` (stereo not shown) [Compound 113, 1-((4-chloro-2-methylphenyl)(methyl)carbamoyl)azetidin-3-yl (1-(4-(2,6-dioxopiperidin-3-yl)-3,5-difluorophenyl)azetidin-3-yl)carbamate] displayed a Dmax in assay [1] of 10 to 50%. The compound further registered a Ki in assay [2] not above 0.1 µM.
On to `CN(C(=O)N1CC[C@@H](OC(=O)NC2CN(c3cc(F)c(C4CCC(=O)NC4=O)c(F)c3)C2)C1)C1CC1` (stereo partly drawn) [Compound 25, (R)-1-(cyclopropyl(methyl)carbamoyl)pyrrolidin-3-yl (1-(4-(2,6-dioxopiperidin-3-yl)-3,5-difluorophenyl)azetidin-3-yl)carbamate], for which the Dmax in assay [1] is 10 to 50%. For the same compound, the Ki in assay [2] is not above 0.1 µM.
With `O=C1CCC(c2c(F)cc(N3C[C@@H](NC(=O)OCC4CC5(CCC5)C4)CC3=O)cc2F)C(=O)N1` (stereo partly drawn) [Compound 57, spiro[3.3]heptan-2-ylmethyl ((3S)-1-(4-(2,6-dioxopiperidin-3-yl)-3,5-difluorophenyl)-5-oxopyrrolidin-3-yl)carbamate], in assay [1], the Dmax is 50 to 80%. This compound also displayed a Ki in assay [2] of 0.1 to 1 µM.
The compound `Cc1cccc(N(C)C(=O)C23CC(OC(=O)NC4CN(c5cc(F)c(C6CCC(=O)NC6=O)c(F)c5)C4)(C2)C3)c1` (stereo not shown) [Compound 134, 3-(methyl(m-tolyl)carbamoyl)bicyclo[1.1.1]pentan-1-yl (1-(4-(2,6-dioxopiperidin-3-yl)-3,5-difluorophenyl)azetidin-3-yl)carbamate] had a Dmax in assay [1] of 50 to 80%. The compound further registered a Ki in assay [2] not above 0.1 µM.
In turn, `N#Cc1cc(C2CCC(=O)NC2=O)ccc1N1CC(Nc2nnc(C3CC4(CCC4)C3)o2)C1` (stereo not shown) [Compound 89, 5-(2,6-dioxopiperidin-3-yl)-2-(3-((5-(spiro[3.3]heptan-2-yl)-1,3,4-oxadiazol-2-yl)amino)azetidin-1-yl)benzonitrile] registered a maximal degradation (Dmax) in assay [1] of 50 to 80%. In assay [2], this compound registered a Ki of more than 1 µM.
In the same order, the values of `Cc1cccc(N2CC(OC(=O)NC3CN(c4cc(F)c(C5CCC(=O)NC5=O)c(F)c4)C3)C2)n1` (stereo not shown) [Compound 80, 1-(6-methylpyridin-2-yl)azetidin-3-yl (1-(4-(2,6-dioxopiperidin-3-yl)-3,5-difluorophenyl)azetidin-3-yl)carbamate] are 50 to 80% and not above 0.1 µM.
Regarding `CN(C(=O)C12CC(OC(=O)NC3CN(c4cc(F)c(C5CCC(=O)NC5=O)c(F)c4)C3)(C1)C2)c1ccc(Cl)cc1` (stereo not shown) [Compound 129, 3-((4-chlorophenyl)(methyl)carbamoyl)bicyclo[1.1.1]pentan-1-yl (1-(4-(2,6-dioxopiperidin-3-yl)-3,5-difluorophenyl)azetidin-3-yl)carbamate], the Dmax in assay [1] fell in the range of 50 to 80%. The Ki in assay [2] is not above 0.1 µM.
In the same order, the values of `Cc1ccccc1-c1nnc(NC2CN(c3cc(F)c(C4CCC(=O)NC4=O)c(F)c3)C2)o1` (stereo not shown) [Compound 96, 3-(2,6-difluoro-4-(3-((5-(o-tolyl)-1,3,4-oxadiazol-2-yl)amino)azetidin-1-yl)phenyl)piperidine-2,6-dione] are more than 80% and not above 0.1 µM.
In the same order, the values of `CN(C)C(=O)N1CC[C@H](OC(=O)NC2CN(c3cc(F)c(C4CCC(=O)NC4=O)c(F)c3)C2)C1` (stereo partly drawn) [Compound 27, (S)-1-(dimethylcarbamoyl)pyrrolidin-3-yl (1-(4-(2,6-dioxopiperidin-3-yl)-3,5-difluorophenyl)azetidin-3-yl)carbamate] are 10 to 50% and not above 0.1 µM.
In the same order, the values of `O=C1CCC(c2c(F)cc([C@@H]3C[C@H]3NC(=O)OCC3CC4(CCC4)C3)cc2F)C(=O)N1` (stereo partly shown) [Compound 38] are more than 80% and not above 0.1 µM.
In assay [1], `CN(C)C(=O)N1CC(OC(=O)NC2(C)CN(c3cc(F)c(C4CCC(=O)NC4=O)c(F)c3)C2)C1` (stereo not shown) [Compound 14, 1-(dimethylcarbamoyl)azetidin-3-yl (1-(4-(2,6-dioxopiperidin-3-yl)-3,5-difluorophenyl)-3-methylazetidin-3-yl)carbamate] yielded a Dmax of 10 to 50%. In assay [2], this compound registered a Ki not above 0.1 µM.
In the same order, the values of `O=C1CCC(c2c(F)cc(N3CC(Nc4nnc(-c5ccc(Cl)cc5)o4)C3)cc2F)C(=O)N1` (stereo not shown) [Compound 93, 3-(4-(3-((5-(4-chlorophenyl)-1,3,4-oxadiazol-2-yl)amino)azetidin-1-yl)-2,6-difluorophenyl)piperidine-2,6-dione] are more than 80% and 0.1 to 1 µM.
In turn, `O=C1CC[C@H](c2c(F)cc(N3CC[C@@H](NC(=O)OCC4CC5(CCC5)C4)C3=O)cc2F)C(=O)N1` [Compound 54, spiro[3.3]heptan-2-ylmethyl ((R)-1-(4-((R)-2,6-dioxopiperidin-3-yl)-3,5-difluorophenyl)-2-oxopyrrolidin-3-yl)carbamate] came in with a Dmax in assay [1] of 50 to 80%. Further, in assay [2], the Ki was not above 0.1 µM.
In the same order, the values of `O=C1CCC(c2c(F)cc(N3CC(NC(=O)OC4CC5(CCCCC5)C4)C3)cc2F)C(=O)N1` (stereo not shown) [Compound 67, spiro[3.5]nonan-2-yl (1-(4-(2,6-dioxopiperidin-3-yl)-3,5-difluorophenyl)azetidin-3-yl)carbamate] are more than 80% and not above 0.1 µM.
For `O=C1CCC(c2c(F)cc(N3CC(Nc4nnc(-c5cccnc5)o4)C3)cc2F)C(=O)N1` (stereo not shown) [Compound 128, 3-(2,6-difluoro-4-(3-((5-(pyridin-3-yl)-1,3,4-oxadiazol-2-yl)amino)azetidin-1-yl)phenyl)piperidine-2,6-dione], the Dmax in assay [1] lay in the range of 50 to 80%. The compound further had a Ki in assay [2] not above 0.1 µM.
In the same order, the values of `O=C1CCC(c2c(F)cc(N3CC(NC(=O)OCCc4ccccc4)C3)cc2F)C(=O)N1` (stereo not shown) [Compound 34, phenethyl (1-(4-(2,6-dioxopiperidin-3-yl)-3,5-difluorophenyl)azetidin-3-yl)carbamate] are 50 to 80% and 0.1 to 1 µM.
In the same order, the values of `O=C1CCC(c2c(F)cc(N3CC(Nc4nnc(Cc5ccccc5)o4)C3)cc2F)C(=O)N1` (stereo not shown) [Compound 100, 3-(4-(3-((5-benzyl-1,3,4-oxadiazol-2-yl)amino)azetidin-1-yl)-2,6-difluorophenyl)piperidine-2,6-dione] are 50 to 80% and not above 0.1 µM.
